Reference: patent publication US9775883B2, “Methods, systems, and compositions for promoting recovery of peripheral neuropathy” (HENRY FORD HEALTH SYSTEM, priority 2011, dated 2017)

Assay: Effect of TB4 on bodyweight of db/db mice
Type: in vivo, mouse
Conditions: for Weight: db/db mice, mean ± SE
Experimental: All experimental procedures were carried out in accordance with NIH Guide for the Care and Use of Laboratory Animals and approved by the institutional Animal Care and Use Committee of Henry Ford Hospital. Male BKS.Cg-m+/+Lepr^db/J(db/db) mice (Jackson Laboratories, Bar Harbor, Me.) aged 20 weeks were used. Age-matched heterozygotes mice (db/m), a non-penetrant genotype (Jackson Laboratories), were used as the control animals.
db/db mice at age 20 weeks were treated with Tβ4 at a dose of 6 mg/kg or 24 mg/kg (RegeneRx, Inc, intraperitoneal injection, i.p.), every 3 days for 4 weeks (n=10/group). db/db mice (n=10/group) at the same age treated with same volume of saline were used as a control group. Age-matched db/m mice treated with Tβ4 (6 mg/kg i.p. every 3 days, n=10/group) or saline (n=10/group) were used as additional control groups. All mice were sacrificed 8 weeks after the initial treatment. Doses of Tβ4 were selected based on published studies^13.

- Weight (TB4 6 mg/kg i.p. every 3 days for 4 weeks, 0 w (before the treatment)): 59.5 ± 0.9 g
- Weight (TB4 6 mg/kg, 2 w): 57.1 ± 1.1 g
- Weight (TB4 6 mg/kg, 4 w): 56.2 ± 1.2 g
- Weight (TB4 6 mg/kg, 6 w): 53.7 ± 1.5 g
- Weight (TB4 6 mg/kg, 8 w): 53.0 ± 1.7 g
- Weight (TB4 24 mg/kg i.p. every 3 days for 4 weeks, 0 w (before the treatment)): 58.9 ± 1.1 g
- Weight (TB4 24 mg/kg, 2 w): 58.1 ± 1.2 g
- Weight (TB4 24 mg/kg, 4 w): 55.7 ± 1.5 g
- Weight (TB4 24 mg/kg, 6 w): 56.0 ± 1.4 g
- Weight (TB4 24 mg/kg, 8 w): 54.8 ± 1.6 g
SMILES: CC[C@H](C)[C@H](NC(=O)[C@H](CCC(=O)O)NC(=O)[C@H](C)NC(=O)[C@H](CCSC)NC(=O)[C@H](CC(=O)O)NC(=O)[C@@H]1CCCN1C(=O)[C@H](CCCCN)NC(=O)[C@H](CC(=O)O)NC(=O)[C@H](CO)NC(C)=O)C(=O)N[C@@H](CCC(=O)O)C(=O)N[C@@H](CCCCN)C(=O)N[C@@H](Cc1ccccc1)C(=O)N[C@@H](CC(=O)O)C(=O)N[C@@H](CCCCN)C(=O)N[C@@H](CO)C(=O)N[C@@H](CCCCN)C(=O)N[C@@H](CC(C)C)C(=O)N[C@@H](CCCCN)C(=O)N[C@@H](CCCCN)C(=O)N[C@H](C(=O)N[C@@H](CCC(=O)O)C(=O)N[C@H](C(=O)N[C@@H](CCC(N)=O)C(=O)N[C@@H](CCC(=O)O)C(=O)N[C@@H](CCCCN)C(=O)N[C@@H](CC(N)=O)C(=O)N1CCC[C@H]1C(=O)N[C@@H](CC(C)C)C(=O)N1CCC[C@H]1C(=O)N[C@@H](CO)C(=O)N[C@@H](CCCCN)C(=O)N[C@@H](CCC(=O)O)C(=O)N[C@H](C(=O)N[C@H](C(=O)N[C@@H](CCC(=O)O)C(=O)N[C@@H](CCC(N)=O)C(=O)N[C@@H](CCC(=O)O)C(=O)N[C@@H](CCCCN)C(=O)N[C@@H](CCC(N)=O)C(=O)N[C@@H](C)C(=O)NCC(=O)N[C@@H](CCC(=O)O)C(=O)N[C@@H](CO)C(=O)O)[C@@H](C)CC)[C@@H](C)O)[C@@H](C)O)[C@@H](C)O [Tβ4, thymosin beta 4]
- animal body weight (db/db mouse treated with Tβ4 (Table 1)): did not significantly alter
